Source: the OligoGym collection
Only the 19 paired bases of each siRNA are shown; overhangs and chemistry are not given here.

These substances were tested against placental-type alkaline phosphatase (assay: five studies, different assays). Conditions: siRNA.
Further: test concentration or dose not given here.

Substance | target inhibition
sense AGGAGAACCCGGACUUCUG / antisense CAGAAGUCCGGGUUCUCCU | 81%
sense CGGAUGUUACCGAGAGCGA / antisense UCGCUCUCGGUAACAUCCG | 32%
sense GACUGAGACGAUCAUGUUC / antisense GAACAUGAUCGUCUCAGUC | 85%
sense ACCUCAUCAUCUUCCUGGG / antisense CCCAGGAAGAUGAUGAGGU | 49%
sense CGGAAACGGUCCAGGCUAU / antisense AUAGCCUGGACCGUUUCCG | 80.2%
sense GGGCGGGCCAGCUCACCAG / antisense CUGGUGAGCUGGCCCGCCC | 20%
sense UCUGGUGCAGGAAUGGCUG / antisense CAGCCAUUCCUGCACCAGA | 30%
sense ACAGACAGCCGCCAAGAAC / antisense GUUCUUGGCGGCUGUCUGU | 54.7%
sense GAGUGCAGCACGCCUCGCC / antisense GGCGAGGCGUGCUGCACUC | -5%
sense CUUCAUAGCGCACGUCAUG / antisense CAUGACGUGCGCUAUGAAG | 16.5%
sense CACUGCCGACCACUCCCAC / antisense GUGGGAGUGGUCGGCAGUG | -10%
sense AGUACCCAGAUGACUACAG / antisense CUGUAGUCAUCUGGGUACU | 1.85%
sense CUUUGAGCCUGGAGACAUG / antisense CAUGUCUCCAGGCUCAAAG | 79%
sense CUACACGGUCCUCCUAUAC / antisense GUAUAGGAGGACCGUGUAG | 21.2%
sense GAAACGGUCCAGGCUAUGU / antisense ACAUAGCCUGGACCGUUUC | 5.96%
sense CCUACACGGUCCUCCUAUA / antisense UAUAGGAGGACCGUGUAGG | 62.4%
sense GAAUCUGGUGCAGGAAUGG / antisense CCAUUCCUGCACCAGAUUC | 56.5%
sense CAAACAUGUGCCAGACAGU / antisense ACUGUCUGGCACAUGUUUG | 88%
sense CGGCGCCCGGCCGGAUGUU / antisense AACAUCCGGCCGGGCGCCG | 60%
sense UGUUCGACGACGCCAUUGA / antisense UCAAUGGCGUCGUCGAACA | 74%
sense GCCAAGAACCUCAUCAUCU / antisense AGAUGAUGAGGUUCUUGGC | 90.8%

These substances were tested against PTEN (assay: five studies, different assays). Conditions: siRNA.

Substance | target inhibition
sense UUACCAGUUAUAGGAACAA / antisense UUGUUCCUAUAACUGGUAA | 40%
sense GCUACAGUUAUUAAUCUGG / antisense CCAGAUUAAUAACUGUAGC | 37%
sense CUCAGAAAGGAAAUAAUUU / antisense AAAUUAUUUCCUUUCUGAG | 30%
sense AAGAAACACAGCAACAAUG / antisense CAUUGUUGCUGUGUUUCUU | 30%
sense CUUCCUCGGCUUCUCCUGA / antisense UCAGGAGAAGCCGAGGAAG | 62%
sense AAGAAUGGGCUUGAAACAU / antisense AUGUUUCAAGCCCAUUCUU | 40%
sense UUCCCGUUUUAUUCCAGUU / antisense AACUGGAAUAAAACGGGAA | 38%
sense CCUGUGAGCAGCCGCGGGG / antisense CCCCGCGGCUGCUCACAGG | 25%
sense GGUCCCGUCCGCCUCUCGC / antisense GCGAGAGGCGGACGGGACC | 0%
sense CCUUUUGUGAAGAUCUUGA / antisense UCAAGAUCUUCACAAAAGG | 73%
sense CUCUGGCUGCUGAGGAGAA / antisense UUCUCCUCAGCAGCCAGAG | 52%
sense ACCAUCUCCAGCUAUUUAC / antisense GUAAAUAGCUGGAGAUGGU | 6%
sense AAAGGUGAAGAUAUAUUCC / antisense GGAAUAUAUCUUCACCUUU | 9%
sense GGGUAAAUACAUUCUUCAU / antisense AUGAAGAAUGUAUUUACCC | 70%
sense UCCACAGGGUUUUGACACU / antisense AGUGUCAAAACCCUGUGGA | 45%
sense AGUGAAUCUGUAUUGGGGU / antisense ACCCCAAUACAGAUUCACU | 39%

These substances were tested against GAPDH (assay: five studies, different assays). Conditions: siRNA.

Substance | target inhibition
sense UGCUGAUGCCCCCAUGUUC / antisense GAACAUGGGGGCAUCAGCA | 12.7%
sense UCAUGGGUGUGAACCAUGA / antisense UCAUGGUUCACACCCAUGA | 60.5%
sense GCACCACCAACUGCUUAGC / antisense GCUAAGCAGUUGGUGGUGC | 38.6%
sense GUCAUCAUCUCUGCCCCCU / antisense AGGGGGCAGAGAUGAUGAC | 69.8%
sense GGAGCCAAAAGGGUCAUCA / antisense UGAUGACCCUUUUGGCUCC | 88.7%
sense GAUCAUCAGCAAUGCCUCC / antisense GGAGGCAUUGCUGAUGAUC | 70.8%
sense UGUUCGUCAUGGGUGUGAA / antisense UUCACACCCAUGACGAACA | 80.3%
sense UGACAACUUUGGUAUCGUG / antisense CACGAUACCAAAGUUGUCA | 43%
sense UGGCCAAGGUCAUCCAUGA / antisense UCAUGGAUGACCUUGGCCA | 91.5%
sense GUGUGAACCAUGAGAAGUA / antisense UACUUCUCAUGGUUCACAC | 92.7%
sense GUAUGACAACAGCCUCAAG / antisense CUUGAGGCUGUUGUCAUAC | 77.6%
sense ACCAUGAGAAGUAUGACAA / antisense UUGUCAUACUUCUCAUGGU | 92.5%
sense CCAAAAGGGUCAUCAUCUC / antisense GAGAUGAUGACCCUUUUGG | 93.9%
sense CCCCUGGCCAAGGUCAUCC / antisense GGAUGACCUUGGCCAGGGG | -2.51%
sense AAGUAUGACAACAGCCUCA / antisense UGAGGCUGUUGUCAUACUU | 94.2%
sense CAGGGGGGAGCCAAAAGGG / antisense CCCUUUUGGCUCCCCCCUG | -24.4%
sense AUGACAACAGCCUCAAGAU / antisense AUCUUGAGGCUGUUGUCAU | 58.3%
sense GACAACAGCCUCAAGAUCA / antisense UGAUCUUGAGGCUGUUGUC | 94.2%
sense CAUGAGAAGUAUGACAACA / antisense UGUUGUCAUACUUCUCAUG | 92.4%
sense AAGGACUCAUGACCACAGU / antisense ACUGUGGUCAUGAGUCCUU | -17.4%

Each substance was assayed against Renilla luciferase (assay: five studies, different assays). Conditions: siRNA.

Substance | target inhibition
sense UCUUACUGCAUGGUUUGAA / antisense UUCAAACCAUGCAGUAAGA | 52.3%
sense GAACAAAGGAAACGGAUGA / antisense UCAUCCGUUUCCUUUGUUC | 84.4%
sense AUCAUGAGAAAGUUAGAAC / antisense GUUCUAACUUUCUCAUGAU | 47.3%
sense GAAUUUGCAGCAUAUCUUG / antisense CAAGAUAUGCUGCAAAUUC | 84.8%
sense GCCAAGAAGUUUCCUAAUA / antisense UAUUAGGAAACUUCUUGGC | 72.2%
sense AAGUGUAGUAGAUGUGAUU / antisense AAUCACAUCUACUACACUU | 87.9%
sense CAGCAUAUCUUGAACCAUU / antisense AAUGGUUCAAGAUAUGCUG | 83.7%
